Results: publication PMC10096391, “Discovery of N,4-Di(1H-pyrazol-4-yl)pyrimidin-2-amine-Derived CDK2 Inhibitors as Potential Anticancer Agents: Design, Synthesis, and Evaluation” (Molecules, 2023)

Columns and labels:
CDK5/p25 (CDK5p25) = CDK5/p25 (CDK5p25) (Homo sapiens, UniProt Q00535); assay: ADP-Glo kinase assay, CDK5/p25; assay type: biochemical; conditions: for Ki: apparent Ki from IC50, ADP-Glo; for inhibition at 1 µM: read-out: % Enzymatic Inhibition at 1 µM CDK5p25
Method: (§1) The luminescent ADP-Glo™ assay, which measures the amount of ADP formed in a kinase reaction as described previously, was used to determine the kinase inhibition profile of the compounds. […] Ki values were calculated from their corresponding IC50 values (the concentrations of inhibitors that inhibit the kinase activity by 50%) and the Michaelis–Menten constant (Km) of ATP for each kinase using the Cheng–Prusoff equation as previously stated. In brief, 1 μL of each concentration of the test compounds was added to the respective wells, and to it were added 1 μL of the kinases and their respective substrates, diluted to the desired concentration in kinase reaction buffer ([…] tris base pH 7.5, 20 mM MgCl2, 0.4 µM dithiothreitol, and 0.1 mg/mL bovine serum albumin), and the pH was adjusted by adding 1 μL of a two-fold diluted kinase reaction buffer. To initiate the kinase activity, 1 μL of ATP solution (the concentration varies depending on the type of kinase under investigation) was added to each well, and the mixture was incubated at room temperature (20 to 22 °C) for 30–60 min depending on the kinase being tested. The reaction was then halted, 5 μL of the ADP-Glo reagent was added to each well (removing any unreacted ATP), and it was incubated at room temperature for 40 min. […] Positive controls (the wells without the inhibitor) and negative or blank controls (the wells without the inhibitor and the enzyme, but with 1 × kinase reaction buffer) were also determined in 2.5% DMSO.
(§2) The percentage of kinase inhibition was determined using the following equation: % Residual kinase activity=Luminescence in the presence of inhibitor−Luminescence of blank control/Luminescence in the absence of inhibitor−Luminescence of blank control×100%%kinase inhbition=100%−%Residual kinase activity
(§3) Km is defined as the concentration of ATP or the substrate required to produce 50% of the maximal reaction rate in the kinase reaction. Therefore, since we used the concentration of ATP and the substrate at their Km values, Ki simply equals IC50/2 assuming these inhibitors are ATP-competitive based on the Cheng–Prusoff equation: Ki = IC50/(1 + ([ATP]/Km(ATP))) where [ATP] is the ATP concentration used for the IC50 determination and Km(ATP) for each kinase was determined experimentally.

CDK9/cyclin T1 (CDK9T1) = CDK9/cyclin T1 (CDK9T1) (Homo sapiens, UniProt P50750); assay: ADP-Glo kinase assay, CDK9/cyclin T1; assay type: biochemical; conditions: for Ki: apparent Ki from IC50, ADP-Glo; for inhibition at 1 µM: read-out: % Enzymatic Inhibition at 1 µM CDK9T1
CDK9/cyclin T1 (CDK9T1), sequence (P50750 whole entry): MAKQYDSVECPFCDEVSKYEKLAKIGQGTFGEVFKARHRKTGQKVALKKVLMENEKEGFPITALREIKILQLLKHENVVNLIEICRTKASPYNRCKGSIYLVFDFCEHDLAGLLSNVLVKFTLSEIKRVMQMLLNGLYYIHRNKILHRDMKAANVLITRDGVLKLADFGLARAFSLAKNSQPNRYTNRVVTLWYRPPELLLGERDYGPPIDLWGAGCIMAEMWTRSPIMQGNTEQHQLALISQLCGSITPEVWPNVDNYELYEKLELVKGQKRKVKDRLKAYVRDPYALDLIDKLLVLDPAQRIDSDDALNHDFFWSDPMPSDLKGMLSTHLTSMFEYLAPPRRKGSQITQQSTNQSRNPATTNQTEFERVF
CDK9/cyclin T1 (CDK9T1), sequence (O60563 whole entry partner): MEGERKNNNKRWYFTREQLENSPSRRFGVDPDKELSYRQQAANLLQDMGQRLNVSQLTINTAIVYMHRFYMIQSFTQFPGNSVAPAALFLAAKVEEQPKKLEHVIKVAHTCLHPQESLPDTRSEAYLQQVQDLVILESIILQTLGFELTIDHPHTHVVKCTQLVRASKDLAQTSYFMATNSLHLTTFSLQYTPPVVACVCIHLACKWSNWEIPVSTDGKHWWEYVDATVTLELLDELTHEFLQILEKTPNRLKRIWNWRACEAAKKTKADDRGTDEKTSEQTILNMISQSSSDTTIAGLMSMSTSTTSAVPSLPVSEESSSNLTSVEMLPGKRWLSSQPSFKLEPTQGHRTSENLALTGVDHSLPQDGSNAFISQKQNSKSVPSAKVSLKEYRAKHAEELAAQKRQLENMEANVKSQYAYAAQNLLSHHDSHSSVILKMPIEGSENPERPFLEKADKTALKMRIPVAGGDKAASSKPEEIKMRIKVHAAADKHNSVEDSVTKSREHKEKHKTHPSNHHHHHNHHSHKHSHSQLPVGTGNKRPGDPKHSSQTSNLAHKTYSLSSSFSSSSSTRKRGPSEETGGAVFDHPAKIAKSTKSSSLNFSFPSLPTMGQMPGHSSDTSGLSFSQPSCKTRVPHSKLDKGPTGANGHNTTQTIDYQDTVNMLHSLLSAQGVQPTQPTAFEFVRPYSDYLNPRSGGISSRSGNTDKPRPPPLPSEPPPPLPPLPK
Method: as §1, §2, §3

CDK2/cyclin E (CDK2E) = CDK2/cyclin E (CDK2E) (Homo sapiens, UniProt P24941); assay: ADP-Glo kinase assay, CDK2/cyclin E; assay type: biochemical; conditions: for Ki: apparent Ki from IC50, ADP-Glo; for inhibition at 1 µM: read-out: % Enzymatic Inhibition at 1 µM CDK2E
Method: (§4) The luminescent ADP-Glo™ assay, which measures the amount of ADP formed in a kinase reaction as described previously, was used to determine the kinase inhibition profile of the compounds. […] Ki values were calculated from their corresponding IC50 values (the concentrations of inhibitors that inhibit the kinase activity by 50%) and the Michaelis–Menten constant (Km) of ATP for each kinase using the Cheng–Prusoff equation as previously stated. In brief, 1 μL of each concentration of the test compounds was added to the respective wells, and to it were added 1 μL of the kinases and their respective substrates, diluted to the desired concentration in kinase reaction buffer ([…] tris base pH 7.5, 20 mM MgCl2, 0.4 µM dithiothreitol, and 0.1 mg/mL bovine serum albumin), and the pH was adjusted by adding 1 μL of a two-fold diluted kinase reaction buffer. To initiate the kinase activity, 1 μL of ATP solution (the concentration varies depending on the type of kinase under investigation) was added to each well, and the mixture was incubated at room temperature (20 to 22 °C) for 30–60 min depending on the kinase being tested. The reaction was then halted, 5 μL of the ADP-Glo reagent was added to each well (removing any unreacted ATP), and it was incubated at room temperature for 40 min. Then, to each well, 10 μL of the kinase detection reagent containing luciferin was added, which was incubated once more at room temperature in the dark for 30 min and the luminescence was measured by an EnVision® multi-label plate reader with an integration time of 1.5 s per well. Positive controls (the wells without the inhibitor) and negative or blank controls (the wells without the inhibitor and the enzyme, but with 1 × kinase reaction buffer) were also determined in 2.5% DMSO.
as §2, §3

[1] = tested on: A2780 ovarian cancer cells; assay: 72 h MTT antiproliferative assay, A2780; assay type: cell-based; conditions: for GI50 / inhibition at 1 µM: Homo sapiens, A2780, 72 h MTT; for inhibition at 1 µM: read-out: % Growth Inhibition (GI) at 1 µM A2780
Excerpt: Cancer cell lines derived from leukemia (MV4-11 and U937), breast (MCF7 (Rb-positive) and MDA-MB-231(Rb-negative)), and ovarian (A2780, OVCAR5, OAW28, OV90, Cov318, and Cov504) cancers, and glioblastoma (U87, T98G and U251) were acquired from the cell bank at Drug Discovery and Development, University of South Australia, and cultured according to the American Type Culture Collection (ATCC) recommendation in Roswell Park Memorial Institute (RPMI)-1640, Dulbecco’s Modified Eagle’s Medium (DMEM), or Minimum Essential Media (MEM), with 10% fetal bovine serum (Sigma-Aldrich, Castle Hill, NSW, Australia) within a humidified incubator at 37 °C in the presence of 5% CO2.
The MTT (Life Technologies, Mulgrave, VIC, Australia) and resazurin (Sigma-Aldrich) assays were used to determine the antiproliferative activities of the compounds initially at 1 µM against the cancer cell lines stated above.

CDK1/cyclin B (CDK1B) = CDK1/cyclin B (CDK1B) (Homo sapiens, UniProt P06493); assay: ADP-Glo kinase assay, CDK1/cyclin B; assay type: biochemical; conditions: for Ki: apparent Ki from IC50, ADP-Glo; for inhibition at 1 µM: read-out: % Enzymatic Inhibition at 1 µM CDK1B
CDK1/cyclin B (CDK1B), sequence (P06493 whole entry): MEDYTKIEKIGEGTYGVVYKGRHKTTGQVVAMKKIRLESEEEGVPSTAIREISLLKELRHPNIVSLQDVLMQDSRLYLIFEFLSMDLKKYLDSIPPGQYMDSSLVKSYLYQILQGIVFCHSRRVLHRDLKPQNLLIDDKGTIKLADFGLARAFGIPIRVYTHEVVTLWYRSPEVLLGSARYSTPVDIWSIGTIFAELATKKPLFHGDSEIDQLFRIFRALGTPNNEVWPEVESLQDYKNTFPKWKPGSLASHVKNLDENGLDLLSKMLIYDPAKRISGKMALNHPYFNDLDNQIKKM
CDK1/cyclin B (CDK1B), sequence (P14635 whole entry partner): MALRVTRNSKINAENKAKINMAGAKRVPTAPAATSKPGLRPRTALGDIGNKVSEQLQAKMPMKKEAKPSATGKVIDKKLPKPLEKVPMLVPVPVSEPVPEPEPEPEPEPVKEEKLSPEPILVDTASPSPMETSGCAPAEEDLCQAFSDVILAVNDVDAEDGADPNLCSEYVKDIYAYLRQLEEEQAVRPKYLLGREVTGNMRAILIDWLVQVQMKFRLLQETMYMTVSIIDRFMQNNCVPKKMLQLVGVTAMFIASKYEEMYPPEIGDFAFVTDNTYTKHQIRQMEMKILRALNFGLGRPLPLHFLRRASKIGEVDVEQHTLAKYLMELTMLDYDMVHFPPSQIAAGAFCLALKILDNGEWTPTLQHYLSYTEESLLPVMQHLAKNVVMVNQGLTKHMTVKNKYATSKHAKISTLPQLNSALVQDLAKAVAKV
Method: as §4, §2, §3

CDK5/p25 (CDK5p25), sequence (Q00535 whole entry): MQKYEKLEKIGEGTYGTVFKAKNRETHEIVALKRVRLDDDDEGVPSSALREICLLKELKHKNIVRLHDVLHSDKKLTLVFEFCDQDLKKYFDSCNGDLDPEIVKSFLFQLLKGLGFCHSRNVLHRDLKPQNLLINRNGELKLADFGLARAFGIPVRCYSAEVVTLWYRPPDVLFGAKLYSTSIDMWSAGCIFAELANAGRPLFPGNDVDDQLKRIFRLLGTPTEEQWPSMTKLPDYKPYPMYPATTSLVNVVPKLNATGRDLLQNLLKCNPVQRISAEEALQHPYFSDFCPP
CDK5/p25 (CDK5p25), sequence (Q15078 99-307 partner limits assumed): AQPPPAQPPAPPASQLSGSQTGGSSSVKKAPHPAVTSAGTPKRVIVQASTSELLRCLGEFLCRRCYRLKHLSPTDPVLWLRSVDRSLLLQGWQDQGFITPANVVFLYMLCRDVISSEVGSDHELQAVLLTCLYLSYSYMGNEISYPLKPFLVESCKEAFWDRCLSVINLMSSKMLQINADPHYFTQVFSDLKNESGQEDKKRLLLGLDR

Row | Ki (CDK5/p25 (CDK5p25)) | Ki (CDK9/cyclin T1 (CDK9T1)) | Ki (CDK2/cyclin E (CDK2E)) | GI50 [1] | Ki (CDK1/cyclin B (CDK1B)) | inhibition at 1 µM (CDK2/cyclin E (CDK2E)) | inhibition at 1 µM (CDK9/cyclin T1 (CDK9T1)) | fold reduced CDK2 inhibition compared to 15 (CDK2/cyclin E (CDK2E); versus 15, Ki ratio) | inhibition at 1 µM (CDK1/cyclin B (CDK1B)) | inhibition at 1 µM (CDK5/p25 (CDK5p25)) | Structure (SMILES) | fold lower antiproliferative activity against A2780 compared to 1 ([1]; versus 1) | inhibition at 1 µM [1] | fold less potent antiproliferative activity against A2780 than 15 ([1]; versus 15, GI50 ratio)
1 | 18 nM | 98 nM | 23 nM | – | 92 nM | 97% | – | – | – | – | Cn1cc(Nc2ncc(F)c(-c3cnn(C)c3)n2)cn1 [Compound 16, 5-Fluoro-N,4-bis(1-methyl-1H-pyrazol-4-yl)pyrimidin-2-amine] | – | 9% | –
2 | – | – | 11 nM | 1020 nM | 34 nM | – | – | – | – | – | Cn1cc(Nc2ncc(Cl)c(-c3cnn(C)c3)n2)cn1 [Compound 17, 5-Chloro-N,4-bis(1-methyl-1H-pyrazol-4-yl)pyrimidin-2-amine] | – | 87% | –
3 | 52 nM | 101 nM | 25 nM | – | 18 nM | – | – | – | – | – | Cn1cc(-c2nc(Nc3cnn(CC(N)=O)c3)ncc2Cl)cn1 [Compound 19, 2-(4-((5-Chloro-4-(1-methyl-1H-pyrazol-4-yl)pyrimidin-2-yl)amino)-1H-pyrazol-1-yl)acetamide] | – | 44% | –
4 | 35 nM | 62 nM | 23 nM | – | 225 nM | – | – | – | – | – | Cc1nn(C)cc1-c1nc(Nc2cnn(C)c2)ncc1Cl [Compound 21, 5-Chloro-4-(1,3-dimethyl-1H-pyrazol-4-yl)-N-(1-methyl-1H-pyrazol-4-yl)pyrimidin-2-amine] | – | 8% | –
5 | 126 nM | – | 252 nM | – | – | – | 21% | – | 36% | – | Cn1cc(Nc2ncc(Cl)c(-c3cnn(CCN4CCOCC4)c3)n2)cn1 [Compound 32, 5-Chloro-N-(1-methyl-1H-pyrazol-4-yl)-4-(1-(2-morpholinoethyl)-1H-pyrazol-4-yl)pyrimidin-2-amine] | – | 3% | –

The remaining lines, values behind:

Row | Structure (SMILES) | Ki (CDK5/p25 (CDK5p25)) | Ki (CDK9/cyclin T1 (CDK9T1)) | Ki (CDK2/cyclin E (CDK2E)) | GI50 [1] | Ki (CDK1/cyclin B (CDK1B)) | inhibition at 1 µM (CDK2/cyclin E (CDK2E)) | inhibition at 1 µM (CDK9/cyclin T1 (CDK9T1)) | fold reduced CDK2 inhibition compared to 15 (CDK2/cyclin E (CDK2E); versus 15, Ki ratio) | inhibition at 1 µM (CDK1/cyclin B (CDK1B)) | inhibition at 1 µM (CDK5/p25 (CDK5p25)) | fold lower antiproliferative activity against A2780 compared to 1 ([1]; versus 1) | inhibition at 1 µM [1] | fold less potent antiproliferative activity against A2780 than 15 ([1]; versus 15, GI50 ratio)
6 | Cn1cc(-c2nc(Nc3cn[nH]c3)ncc2F)cn1 [Compound 14, 5-Fluoro-4-(1-methyl-1H-pyrazol-4-yl)-N-(1H-pyrazol-4-yl)pyrimidin-2-amine] | 3 nM | 16 nM | 7 nM | 498 nM | 18 nM | – | – | – | – | – | about 28 fold | – | –
7 | Cn1cc(-c2nc(Nc3cnn(CC(N)=O)c3)ncc2F)cn1 [Compound 18, 2-(4-((5-Fluoro-4-(1-methyl-1H-pyrazol-4-yl)pyrimidin-2-yl)amino)-1H-pyrazol-1-yl)acetamide] | 193 nM | – | 85 nM | – | 112 nM | – | 68% | – | – | – | – | 0% | –
8 | Cc1nn(C)cc1-c1nc(Nc2cnn(C)c2)ncc1F [Compound 20, 4-(1,3-Dimethyl-1H-pyrazol-4-yl)-5-fluoro-N-(1-methyl-1H-pyrazol-4-yl)pyrimidin-2-amine] | 18 nM | 343 nM | 26 nM | – | 164 nM | – | – | – | – | – | – | 7% | –
9 | Cn1cc(-c2nc(Nc3ccn[nH]3)ncc2Cl)cn1 [Compound 23, 5-Chloro-4-(1-methyl-1H-pyrazol-4-yl)-N-(1H-pyrazol-5-yl)pyrimidin-2-amine] | 40 nM | – | 90 nM | 7350 nM | – | – | 40% | 18 fold | 9% | – | – | – | 47 fold
10 | Cn1cc(-c2nc(Nc3nccs3)ncc2Cl)cn1 [Compound 25, N-(5-Chloro-4-(1-methyl-1H-pyrazol-4-yl)pyrimidin-2-yl)thiazol-2-amine] | 177 nM | – | – | – | – | 46% | 31% | – | 31% | – | – | 9% | –
11 | Cn1cc(Nc2ncc(F)c(-c3cnn(CCN4CCOCC4)c3)n2)cn1 [Compound 31, 5-Fluoro-N-(1-methyl-1H-pyrazol-4-yl)-4-(1-(2-morpholinoethyl)-1H-pyrazol-4-yl)pyrimidin-2-amine] | – | – | – | – | – | 48% | 24% | – | 26% | 43% | – | 0% | –
12 | Cn1cc(Nc2ncc(F)c(-c3ccnn3C)n2)cn1 [Compound 35, 5-Fluoro-N-(1-methyl-1H-pyrazol-4-yl)-4-(1-methyl-1H-pyrazol-5-yl)pyrimidin-2-amine] | – | – | – | – | – | 64% | 45% | – | 49% | 58% | – | 19% | –
